± gives the expanded uncertainty stated by the source.
Conditions: 101.33 kPa, Liquid, Vibrating tube method

| SMILES | mass density (278.15 K) [kg/m3] | mass density (283.15 K) [kg/m3] | mass density (288.15 K) [kg/m3] | mass density (293.15 K) [kg/m3] | mass density (298.15 K) [kg/m3] | mass density (303.15 K) [kg/m3] | mass density (308.15 K) [kg/m3] | mass density (313.15 K) [kg/m3] | mass density (318.15 K) [kg/m3] | mass density (323.15 K) [kg/m3] | mass density (328.15 K) [kg/m3] | mass density (333.15 K) [kg/m3] | mass density (338.15 K) [kg/m3] | mass density (343.15 K) [kg/m3] | mass density (348.15 K) [kg/m3] | mass density (353.15 K) [kg/m3] |
| --- | --- | --- | --- | --- | --- | --- | --- | --- | --- | --- | --- | --- | --- | --- | --- | --- |
| CCN(CC)c1c(N(CC)CC)[c+]1N(CC)CC.N#C[N-]C#N [1,2,3-tris(diethylamino)-cyclopropenylium dicyanoamide] | 1016.38 ± 1.9 | 1013.27 ± 1.9 | 1010.14 ± 1.9 | 1007 ± 1.9 | 1003.91 ± 1.9 | 1000.79 ± 1.9 | 997.7 ± 1.9 | 994.62 ± 1.9 | 991.55 ± 1.9 | 988.5 ± 1.9 | 985.46 ± 1.8 | 982.43 ± 1.8 | 979.41 ± 1.8 | 976.41 ± 1.8 | 973.4 ± 1.8 | 970.42 ± 1.8 |
| CCC[N+](C)(C)CC.O=S(=O)([N-]S(=O)(=O)C(F)(F)F)C(F)(F)F | 1420.02 ± 0.63 | 1415.26 ± 0.62 | 1410.6 ± 0.62 | 1405.96 ± 0.61 | 1401.26 ± 0.61 | 1396.46 ± 0.6 | 1391.81 ± 0.6 | 1387.91 ± 0.59 | 1383.36 ± 0.59 | 1379.82 ± 0.58 | 1375.4 ± 0.6 | 1370.97 ± 0.58 | 1366.49 ± 0.58 | 1361.67 ± 0.57 | 1357.66 ± 0.56 | 1353.3 ± 0.56 |
